Assays:
AGS cells [1] = assay: Apoptosis analysis by Annexin V / 7AAD staining; type: cell-based; details: for AnnV+ 7AAD+ cell fraction / AnnV+ 7AAD− cell fraction / AnnV− 7AAD+ cell fraction / AnnV− 7AAD− cell fraction: 72 h
Experimental: (§1) After 72 h of treatment the media and the cells were collected, and cytotoxicity was determined by cell counts. Cells (including cells from the media) were stained for Annexin V and 7AAD for apoptosis analysis. For the testing of the clonogenic effect, cells were seeded for colonies.
(§2) Cells were seeded on inovitro dishes and petri dishes 24 h before starting the experiments. Media containing the indicated concentration of each chemotherapy component alone or FOLFOX and control media was added to the cells and the dishes were connected to TTFields (as in SOP-BI-009) or grown in 37° C., 5% CO2 for 72 h. Each treatment included 8 repeats (8 dishes). The media was replaced every 24 h. At the end of the experiment the cells were collected, and cytotoxicity was determined by cell counts, small number of cells were seeded for colonies and the cells (including cells from the media) were stained for Annexin V and 7AAD for apoptosis analysis.
(§3) Apoptotic effect: Average of cell fraction of each marker staining (Annexin V and 7AAD) of at least 5 dishes from each treatment was calculated in Excel software. The averages from these repeats was calculated to averages and is presented in stacked bar graph using GraphPed software.

AGS cells [2] = assay: Clonogenic effect (colonies count); type: cell-based; details: for colonies count: 72 h
Experimental: (§4) After 72 h of treatment the media and the cells were collected, and cytotoxicity was determined by cell counts. […] For the testing of the clonogenic effect, cells were seeded for colonies.
(§5) After 6-14 days the colonies were fixed, stained and counted to determine clonogenic effect. The overall effect was calculated by multiplying the cytotoxic effect and the clonogenic effect.
(§6) Clonogenic effect: The colonies from each well were counted using ImageJ software. Average and standard deviation of colony number of at least 5 wells from each treatment were calculated in excel software. The averages from these repeats was calculated to averages and standard errors and is presented as percent from control (no drug treatment) in XY graph of points with error bars using GraphPed software. Significant was determine by 2-way ANOVA followed Multiple comparison using GraphPed software.

AGS cells [3] = assay: Overall effect (cytotoxic effect x clonogenic effect); type: cell-based; details: 72 h
Experimental: as §5
(§7) Overall effect: Each colony number was multiply in the percent of cytotoxic effect of its dish and averages and standard deviations of each treatment were calculated in Excel software. […] Significant was determine by 2-way ANOVA followed Multiple comparison using GraphPed software.

KATO III cells [4] = assay: Apoptosis analysis by Annexin V / 7AAD staining; type: cell-based; details: for AnnV+ 7AAD+ cell fraction / AnnV+ 7AAD− cell fraction / AnnV− 7AAD+ cell fraction / AnnV− 7AAD− cell fraction: 72 h
Experimental: as §1, §2, §3

AGS cells [5] = test system: AGS cells
Experimental: (§8) During the treatment the media of all dishes was replaced every 24 h (“hours”).
(§9) After 72 h of treatment the media and the cells were collected, and cytotoxicity was determined by cell counts.
as §2
(§10) A TTFields generator (Inovitro systems) was used to apply the treatment to the cells.
(§11) Cytotoxic effect: Average and standard deviation of cell number of at least 5 dishes from each treatment was calculated in Excel software. The averages from these repeats was calculated to averages and standard error and is presented as percent from control (no drug treatment) in XY graph of points with error bars using GraphPed software. Significant was determine by 2-way ANOVA followed Multiple comparison using GraphPed software.

KATO III cells [6] = test system: KATO III cells
Experimental: as §8, §9, §2, §10, §11

KATO III cells [7] = assay: Clonogenic effect (colonies count); details: for colonies count: 72 h, one experiment;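 for all read-outs here: after treatment, KATO III cells were reseeded and grown 6–14 days, then colonies were fixed, stained and counted, expressed as percent of untreated (no drug) control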
Experimental: as §4, §5, §6

KATO III cells [8] = assay: Overall effect (cytotoxic effect x clonogenic effect); details: 72 h, one experiment
Experimental: as §5, §7

AGS cells [9] = assay: Cytotoxic effect by cell count after 72 h, with and without TTFields
Experimental: as §8, §9, §2, §10, §11

KATO III cells [10] = assay: as above
Experimental: as §8, §9, §2, §10, §11

[11] = 0.2 uM, + TTFields 150 kHz 1.0 V/cm, one experiment
[12] = 0.2 uM, no TTFields, one experiment
[13] = 5 uM, + TTFields 150 kHz 1.0 V/cm, one experiment
[14] = 5 uM, no TTFields, one experiment
[15] = 10 uM, + TTFields 150 kHz 1.0 V/cm, one experiment
[16] = 10 uM, no TTFields, one experiment
[17] = FOLFOX experiment, 5 uM, + TTFields 150 kHz 1.0 V/cm
[18] = FOLFOX experiment, 5 uM, no TTFields
[19] = 1 uM, + TTFields 150 kHz 1.0 V/cm, one experiment
[20] = 1 uM, no TTFields, one experiment
[21] = 2.5 uM, + TTFields 150 kHz 1.6 V/cm, one experiment
[22] = 2.5 uM, no TTFields, one experiment
[23] = 5 uM, + TTFields 150 kHz 1.6 V/cm, one experiment
[24] = 10 uM, + TTFields 150 kHz 1.6 V/cm, one experiment
[25] = FOLFOX experiment, 10 uM, + TTFields 150 kHz 1.6 V/cm
[26] = FOLFOX experiment, 10 uM, no TTFields
[27] = 2.5 uM, + TTFields 150 kHz 1.6 V/cm
[28] = 5 uM, + TTFields 150 kHz 1.6 V/cm
[29] = 10 uM, + TTFields 150 kHz 1.6 V/cm

What does the source list for `Nc1nc2c(c(=O)[nH]1)N(C=O)C(CNc1ccc(C(=O)N[C@@H](CCC(=O)O)C(=O)O)cc1)CN2` (stereo partly drawn) [Leucovorin]?
AnnV+ 7AAD+ cell fraction (AGS cells [1]; [11]): 5.34%; AnnV+ 7AAD− cell fraction (AGS cells [1]; [11]): 4.69%; AnnV− 7AAD+ cell fraction (AGS cells [1]; [11]): 2.18%; AnnV− 7AAD− cell fraction (AGS cells [1]; [11]): 87.79%; AnnV+ 7AAD+ cell fraction (AGS cells [1]; [12]): 2.25%; AnnV+ 7AAD− cell fraction (AGS cells [1]; [12]): 3.42%; AnnV− 7AAD+ cell fraction (AGS cells [1]; [12]): 2.19%; AnnV− 7AAD− cell fraction (AGS cells [1]; [12]): 92.14%; AnnV+ 7AAD+ cell fraction (AGS cells [1]; [13]): 5.55%; AnnV+ 7AAD− cell fraction (AGS cells [1]; [13]): 5.61%; AnnV− 7AAD+ cell fraction (AGS cells [1]; [13]): 3.04%; AnnV− 7AAD− cell fraction (AGS cells [1]; [13]): 85.8%; AnnV+ 7AAD+ cell fraction (AGS cells [1]; [14]): 2.29%; AnnV+ 7AAD− cell fraction (AGS cells [1]; [14]): 4.12%; AnnV− 7AAD+ cell fraction (AGS cells [1]; [14]): 1.02%; AnnV− 7AAD− cell fraction (AGS cells [1]; [14]): 92.57%; AnnV+ 7AAD+ cell fraction (AGS cells [1]; [15]): 3.74%; AnnV+ 7AAD− cell fraction (AGS cells [1]; [15]): 6.27%; AnnV− 7AAD+ cell fraction (AGS cells [1]; [15]): 2.72%; AnnV− 7AAD− cell fraction (AGS cells [1]; [15]): 87.27%; AnnV+ 7AAD+ cell fraction (AGS cells [1]; [16]): 2.84%; AnnV+ 7AAD− cell fraction (AGS cells [1]; [16]): 5.62%; AnnV− 7AAD+ cell fraction (AGS cells [1]; [16]): 1.01%; AnnV− 7AAD− cell fraction (AGS cells [1]; [16]): 90.54%; AnnV+ 7AAD+ cell fraction (AGS cells [1]; [17]): 10.2%; AnnV+ 7AAD− cell fraction (AGS cells [1]; [17]): 6.6%; AnnV− 7AAD+ cell fraction (AGS cells [1]; [17]): 2.4%; AnnV− 7AAD− cell fraction (AGS cells [1]; [17]): 80.7%; AnnV+ 7AAD+ cell fraction (AGS cells [1]; [18]): 4.3%; AnnV+ 7AAD− cell fraction (AGS cells [1]; [18]): 5.3%; AnnV− 7AAD+ cell fraction (AGS cells [1]; [18]): 2.6%; AnnV− 7AAD− cell fraction (AGS cells [1]; [18]): 87.7%; apoptotic effect of drug alone (AGS cells [1]; without TTFields): does not show; colonies count (AGS cells [2]; [11]): 70 % from control; colonies count (AGS cells [2]; [12]): 88 % from control; colonies count (AGS cells [2]; [19]): 77 % from control; colonies count (AGS cells [2]; [20]): 87 % from control; colonies count (AGS cells [2]; [13]): 70 % from control; colonies count (AGS cells [2]; [14]): 95 % from control; colonies count (AGS cells [2]; [17]): 69 % from control; colonies count (AGS cells [2]; [18]): 103 % from control; clonogenic effect of drug alone (AGS cells [2]; without TTFields): does not show; overall effect (colonies count multiplying the cytotoxic effect) (AGS cells [3]; [11]): 42.9 % from control; overall effect (colonies count multiplying the cytotoxic effect) (AGS cells [3]; [12]): 86.6 % from control; overall effect (colonies count multiplying the cytotoxic effect) (AGS cells [3]; [19]): 36.7 % from control; overall effect (colonies count multiplying the cytotoxic effect) (AGS cells [3]; [20]): 89.7 % from control; overall effect (colonies count multiplying the cytotoxic effect) (AGS cells [3]; [13]): 41.7 % from control; overall effect (colonies count multiplying the cytotoxic effect) (AGS cells [3]; [14]): 88.8 % from control; overall effect (colonies count multiplying the cytotoxic effect) (AGS cells [3]; [17]): 41 % from control; overall effect (colonies count multiplying the cytotoxic effect) (AGS cells [3]; [18]): 88 % from control; AnnV+ 7AAD+ cell fraction (KATO III cells [4]; [21]): 18.45%; AnnV+ 7AAD− cell fraction (KATO III cells [4]; [21]): 39.43%; AnnV− 7AAD+ cell fraction (KATO III cells [4]; [21]): 0.3%; AnnV− 7AAD− cell fraction (KATO III cells [4]; [21]): 41.82%; AnnV+ 7AAD+ cell fraction (KATO III cells [4]; [22]): 8.51%; AnnV+ 7AAD− cell fraction (KATO III cells [4]; [22]): 24.86%; AnnV− 7AAD+ cell fraction (KATO III cells [4]; [22]): 0.06%; AnnV− 7AAD− cell fraction (KATO III cells [4]; [22]): 66.57%; AnnV+ 7AAD+ cell fraction (KATO III cells [4]; [23]): 25.55%; AnnV+ 7AAD− cell fraction (KATO III cells [4]; [23]): 36.56%; AnnV− 7AAD+ cell fraction (KATO III cells [4]; [23]): 0.2%; AnnV− 7AAD− cell fraction (KATO III cells [4]; [23]): 37.69%; AnnV+ 7AAD+ cell fraction (KATO III cells [4]; [14]): 9.4%; AnnV+ 7AAD− cell fraction (KATO III cells [4]; [14]): 36.5%; AnnV− 7AAD+ cell fraction (KATO III cells [4]; [14]): 0.12%; AnnV− 7AAD− cell fraction (KATO III cells [4]; [14]): 53.98%; AnnV+ 7AAD+ cell fraction (KATO III cells [4]; [24]): 28.48%; AnnV+ 7AAD− cell fraction (KATO III cells [4]; [24]): 35.82%; AnnV− 7AAD+ cell fraction (KATO III cells [4]; [24]): 0.4%; AnnV− 7AAD− cell fraction (KATO III cells [4]; [24]): 35.3%; AnnV+ 7AAD+ cell fraction (KATO III cells [4]; [16]): 12.64%; AnnV+ 7AAD− cell fraction (KATO III cells [4]; [16]): 39.85%; AnnV− 7AAD+ cell fraction (KATO III cells [4]; [16]): 1.01%; AnnV− 7AAD− cell fraction (KATO III cells [4]; [16]): 46.5%; AnnV+ 7AAD+ cell fraction (KATO III cells [4]; [25]): 33.83%; AnnV+ 7AAD− cell fraction (KATO III cells [4]; [25]): 18.24%; AnnV− 7AAD+ cell fraction (KATO III cells [4]; [25]): 1.32%; AnnV− 7AAD− cell fraction (KATO III cells [4]; [25]): 46.62%; AnnV+ 7AAD+ cell fraction (KATO III cells [4]; [26]): 24.39%; AnnV+ 7AAD− cell fraction (KATO III cells [4]; [26]): 12.36%; AnnV− 7AAD+ cell fraction (KATO III cells [4]; [26]): 0.80%; AnnV− 7AAD− cell fraction (KATO III cells [4]; [26]): 62.46%; apoptotic effect of drug alone (KATO III cells [4]; without TTFields): does not show; cytotoxic effect of drug alone (AGS cells [5]): does not show; cytotoxic effect of drug alone (KATO III cells [6]): does not show; colonies count (KATO III cells [7]; [27]): 60 % from control; colonies count (KATO III cells [7]; 2.5 uM, no TTFields): 100 % from control; colonies count (KATO III cells [7]; [28]): 68 % from control; colonies count (KATO III cells [7]; 5 uM, no TTFields): 79 % from control; colonies count (KATO III cells [7]; [29]): 62 % from control; colonies count (KATO III cells [7]; 10 uM, no TTFields): 91 % from control; clonogenic effect of drug alone (KATO III cells [7]; without TTFields): does not show; overall effect (colonies count multiplying the cytotoxic effect) (KATO III cells [8]; [27]): 32 % from control; overall effect (colonies count multiplying the cytotoxic effect) (KATO III cells [8]; 2.5 uM, no TTFields): 106 % from control; overall effect (colonies count multiplying the cytotoxic effect) (KATO III cells [8]; [28]): 35 % from control; overall effect (colonies count multiplying the cytotoxic effect) (KATO III cells [8]; 5 uM, no TTFields): 81 % from control; overall effect (colonies count multiplying the cytotoxic effect) (KATO III cells [8]; [29]): 27 % from control; overall effect (colonies count multiplying the cytotoxic effect) (KATO III cells [8]; 10 uM, no TTFields): 78 % from control; cell count (AGS cells [9]; 0.2 uM, + TTFields 150 kHz 1.0 V/cm): 44 % from control; cell count (AGS cells [9]; 0.2 uM, no TTFields): 88 % from control; cell count (AGS cells [9]; 1 uM, + TTFields 150 kHz 1.0 V/cm): 46.5 % from control; cell count (AGS cells [9]; 1 uM, no TTFields): 84 % from control; cell count (AGS cells [9]; 5 uM, + TTFields 150 kHz 1.0 V/cm): 45 % from control; cell count (AGS cells [9]; 5 uM, no TTFields): 77 % from control; cell count (AGS cells [9]; [17]): 59 % from control; cell count (AGS cells [9]; [18]): 83 % from control; cell count (KATO III cells [10]; [21]): 58 % from control; cell count (KATO III cells [10]; [22]): 106 % from control; cell count (KATO III cells [10]; [23]): 51 % from control; cell count (KATO III cells [10]; [14]): 107 % from control; cell count (KATO III cells [10]; [24]): 47 % from control; cell count (KATO III cells [10]; [16]): 90 % from control; cell count (KATO III cells [10]; FOLFOX experiment, 5 uM, + TTFields 150 kHz 1.6 V/cm): 49 % from control; cell count (KATO III cells [10]; [18]): 102 % from control

Reference: patent US20250082931A1, “Treating Gastric Cancer Using TTFields Combined with XELOX, FOLFOX or the Individual Constituents Thereof” (Novocure GmbH, priority 2019, published 2025)
